# Source: ChEMBL document CHEMBL1134382, “Estimation of binding affinities for selective thrombin inhibitors via Monte Carlo simulations” (J Med Chem, 2001)
# Biological target: Prothrombin (Homo sapiens, UniProt P00734)
# Assay: Binding affinity was determined against human thrombin
row,SMILES,Ki
1,CN(C)c1cccc2c(S(=O)(=O)N[C@@H](Cc3ccc(C(N)NN)cc3)C(=O)N(C)C3CCCC3)cccc12 (stereo partly specified),0.3 nM
2,CN(C(=O)[C@H](Cc1ccc(C(N)NN)cc1)NS(=O)(=O)c1ccc2c(c1)CCCC2)C1CCCC1 (stereo partly specified),0.12 nM
3,CN(C(=O)[C@H](Cc1ccc(C(N)NN)cc1)NS(=O)(=O)c1cccc2c1CCCC2)C1CCCC1 (stereo partly specified),3.8 nM
4,CN(C(=O)[C@H](Cc1ccc(C(N)NN)cc1)NS(=O)(=O)c1ccc2c(c1)CCCCC2)C1CCCC1 (stereo partly specified),0.045 nM
5,CN(C(=O)[C@H](Cc1ccc(C(N)NN)cc1)NS(=O)(=O)Cc1ccccc1)C1CCCC1 (stereo partly specified),18.4 nM
6,CN(C(=O)[C@H](Cc1ccc(C(N)NN)cc1)NS(=O)(=O)c1cccc2ccccc12)C1CCCC1 (stereo partly specified),8 nM
7,CN(C(=O)[C@H](Cc1ccc(CCN)cc1)NS(=O)(=O)c1ccc2ccccc2c1)C1CCCC1,3.3 nM
8,CCOC(=O)N1CCN(C(=O)[C@H](Cc2ccc(C(N)NN)cc2)NS(=O)(=O)c2ccc3ccccc3c2)CC1 (stereo partly specified),3300 nM
9,CS(=O)(=O)N1CCN(C(=O)[C@H](Cc2ccc(C(N)NN)cc2)NS(=O)(=O)c2ccc3ccccc3c2)CC1 (stereo partly specified),11 nM
10,CN(C(=O)[C@H](Cc1ccc(C(N)NN)cc1)NS(=O)(=O)c1ccc2cc3ccccc3cc2c1)C1CCCC1 (stereo partly specified),0.1 nM
11,CN(C(=O)[C@H](Cc1ccc(C(N)NN)cc1)NS(=O)(=O)c1ccc2ccccc2c1)C1CCCC1 (stereo partly specified),0.38 nM

# Biological target: Prothrombin (Bos taurus, UniProt P00735)
# Assay: Binding affinity was determined against bovine thrombin.
row,SMILES,Ki
1,NNC(N)c1ccc(C[C@@H](NC(=O)CNS(=O)(=O)c2ccc3ccccc3c2)C(=O)N2CCCCC2)cc1 (stereo partly specified),4320 nM
2,CNC(N)c1ccc(C[C@@H](NC(=O)CNS(=O)(=O)c2ccc3ccccc3c2)C(=O)N2CCCCC2)cc1 (stereo partly specified),5370 nM
3,CN(C(=O)[C@H](Cc1ccc(C(N)NN)cc1)NS(=O)(=O)c1ccc2ccccc2c1)C1CCCCC1 (stereo partly specified),152 nM
4,NC(N)c1ccc(C[C@H](NS(=O)(=O)c2ccc3ccccc3c2)C(=O)N2CCCCCC2)cc1,52.4 nM
5,CCCCN(C)C(=O)[C@H](Cc1ccc(C(N)NN)cc1)NS(=O)(=O)c1ccc2ccccc2c1 (stereo partly specified),41 nM
6,CN(C(=O)[C@H](Cc1ccc(C(N)NN)cc1)NS(=O)(=O)c1ccc2ccccc2c1)C1CC1 (stereo partly specified),247 nM
7,NC(N)c1ccc(C[C@@H](NC(=O)CNS(=O)(=O)c2ccc3ccccc3c2)C(=O)N2CCCCC2)cc1,6.5 nM
8,CNC(N)c1ccc(C[C@H](NS(=O)(=O)c2ccc3ccccc3c2)C(=O)N2CCCCCC2)cc1 (stereo partly specified),45.5 nM
9,NNC(N)c1ccc(C[C@H](NS(=O)(=O)c2ccc3ccccc3c2)C(=O)N2CCCCCC2)cc1 (stereo partly specified),1.5 nM
10,CN(C(=O)[C@H](Cc1ccc(C(N)NN)cc1)NS(=O)(=O)c1ccc2ccccc2c1)C1CCCC1 (stereo partly specified),1.1 nM
